Experimental data taken from ChEMBL document CHEMBL1201862, “PubChem BioAssay data set” (2004).
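Assay format: 96-well plates, 48-hour exposure. GI50 = concentration required for 50% inhibition of growth.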 Activity calls are given as the source filed them. No stated cut-off is given here; in the data, active = GI50 up to about 1.1 µM and inactive = higher.

Assays:
Assay in all cases: DTP human tumour cell line panel, 48 h
786-0 = test system: 786-0
A498 = test system: A498
A549 = test system: A549
ACHN = test system: ACHN
BT-549 = test system: BT-549
CAKI-1 = test system: CAKI-1
CCRF-CEM = test system: CCRF-CEM
COLO 205 = test system: COLO 205
DU-145 = test system: DU-145
EKVX = test system: EKVX
HCC 2998 = test system: HCC 2998
HCT-116 = test system: HCT-116
HCT-15 = test system: HCT-15
HL-60 = test system: HL-60
HOP-62 = test system: HOP-62
HOP-92 = test system: HOP-92
HT-29 = test system: HT-29
Hs-578T = test system: Hs-578T
IGROV-1 = test system: IGROV-1
K562 = test system: K562
KM12 = test system: KM12
LOX IMVI = test system: LOX IMVI
M14 = test system: M14
MCF7 = test system: MCF7
MDA-MB-231 = test system: MDA-MB-231
MDA-MB-435 = test system: MDA-MB-435
MDA-N = test system: MDA-N
MOLT-4 = test system: MOLT-4
NCI-H226 = test system: NCI-H226
NCI-H23 = test system: NCI-H23
NCI-H460 = test system: NCI-H460
NCI-H522 = test system: NCI-H522
NCI/ADR-RES = test system: NCI/ADR-RES
OVCAR-3 = test system: OVCAR-3
OVCAR-4 = test system: OVCAR-4
OVCAR-5 = test system: OVCAR-5
OVCAR-8 = test system: OVCAR-8
PC-3 = test system: PC-3
RPMI-8226 = test system: RPMI-8226
RXF 393 = test system: RXF 393
SF-268 = test system: SF-268
SF-295 = test system: SF-295
SF-539 = test system: SF-539
SK-MEL-28 = test system: SK-MEL-28
SK-MEL-2 = test system: SK-MEL-2
SK-MEL-5 = test system: SK-MEL-5
SK-OV-3 = test system: SK-OV-3
SN12C = test system: SN12C
SNB-19 = test system: SNB-19
SNB-75 = test system: SNB-75
SR = test system: SR
SW-620 = test system: SW-620
TK-10 = test system: TK-10
U-251 = test system: U-251
UACC-257 = test system: UACC-257
UACC-62 = test system: UACC-62
UO-31 = test system: UO-31
Malme-3M = test system: Malme-3M

Structure (SMILES): CCCCCCOc1ccc(C(=O)NOC)cc1
- GI50 (786-0): > 100 µM (inactive)
- GI50 (A498): 99.1 µM (inactive)
- GI50 (A549): 66.7 µM (inactive)
- GI50 (ACHN): > 100 µM (inactive)
- GI50 (BT-549): 82.8 µM (inactive)
- GI50 (CAKI-1): 96.8 µM (inactive)
- GI50 (CCRF-CEM): > 100 µM (inactive)
- GI50 (COLO 205): > 100 µM (inactive)
- GI50 (DU-145): > 100 µM (inactive)
- GI50 (EKVX): > 100 µM (inactive)
- GI50 (HCC 2998): > 100 µM (inactive)
- GI50 (HCT-116): > 100 µM (inactive)
- GI50 (HCT-15): > 100 µM
- GI50 (HL-60): 26.9 µM (inactive)
- GI50 (HOP-62): > 100 µM (inactive)
- GI50 (HOP-92): > 100 µM (inactive)
- GI50 (HT-29): > 100 µM (inactive)
- GI50 (Hs-578T): > 100 µM (inactive)
- GI50 (IGROV-1): > 100 µM (inactive)
- GI50 (K562): 40.4 µM (inactive)
- GI50 (KM12): > 100 µM (inactive)
- GI50 (LOX IMVI): > 100 µM (inactive)
- GI50 (M14): > 100 µM (inactive)
- GI50 (MCF7): > 100 µM (inactive)
- GI50 (MDA-MB-231): 80.5 µM (inactive)
- GI50 (MDA-MB-435): > 100 µM (inactive)
- GI50 (MDA-N): > 100 µM (inactive)
- GI50 (MOLT-4): 24.8 µM (inactive)
- GI50 (NCI-H226): > 100 µM (inactive)
- GI50 (NCI-H23): > 100 µM (inactive)
- GI50 (NCI-H460): > 100 µM (inactive)
- GI50 (NCI-H522): > 100 µM (inactive)
- GI50 (NCI/ADR-RES): > 100 µM (inactive)
- GI50 (OVCAR-3): > 100 µM (inactive)
- GI50 (OVCAR-4): > 100 µM (inactive)
- GI50 (OVCAR-5): > 100 µM (inactive)
- GI50 (OVCAR-8): > 100 µM (inactive)
- GI50 (PC-3): 60.1 µM (inactive)
- GI50 (RPMI-8226): 36 µM (inactive)
- GI50 (RXF 393): > 100 µM (inactive)
- GI50 (SF-268): > 100 µM (inactive)
- GI50 (SF-295): > 100 µM (inactive)
- GI50 (SF-539): > 100 µM (inactive)
- GI50 (SK-MEL-28): > 100 µM (inactive)
- GI50 (SK-MEL-2): > 100 µM (inactive)
- GI50 (SK-MEL-5): > 100 µM (inactive)
- GI50 (SK-OV-3): > 100 µM (inactive)
- GI50 (SN12C): > 100 µM (inactive)
- GI50 (SNB-19): > 100 µM (inactive)
- GI50 (SNB-75): > 100 µM (inactive)
- GI50 (SR): 62.5 µM (inactive)
- GI50 (SW-620): > 100 µM (inactive)
- GI50 (TK-10): > 100 µM (inactive)
- GI50 (U-251): > 100 µM (inactive)
- GI50 (UACC-257): > 100 µM (inactive)
- GI50 (UACC-62): > 100 µM (inactive)
- GI50 (UO-31): 30.3 µM (inactive)

Structure (SMILES): ClCCN1CCC2(CC1)SSC1(CCN(CCCl)CC1)S2
- GI50 (786-0): 36.7 µM (inactive)
- GI50 (A498): 63.4 µM (inactive)
- GI50 (A549): 89.9 µM (inactive)
- GI50 (ACHN): 40.5 µM (inactive)
- GI50 (BT-549): 35.8 µM (inactive)
- GI50 (CAKI-1): 11.9 µM (inactive)
- GI50 (CCRF-CEM): 15 µM (inactive)
- GI50 (COLO 205): 15.8 µM (inactive)
- GI50 (DU-145): 37.2 µM (inactive)
- GI50 (HCT-116): 45.9 µM (inactive)
- GI50 (HCT-15): 36.2 µM
- GI50 (HL-60): 30.7 µM (inactive)
- GI50 (HOP-62): > 100 µM (inactive)
- GI50 (HOP-92): 1.79 µM (inactive)
- GI50 (HT-29): 48 µM (inactive)
- GI50 (Hs-578T): 45.1 µM (inactive)
- GI50 (IGROV-1): 74 µM (inactive)
- GI50 (K562): 37.8 µM (inactive)
- GI50 (KM12): > 100 µM (inactive)
- GI50 (LOX IMVI): 31.8 µM (inactive)
- GI50 (M14): 61.4 µM (inactive)
- GI50 (MCF7): 11.6 µM (inactive)
- GI50 (MDA-MB-231): 57.5 µM (inactive)
- GI50 (MDA-MB-435): 73.6 µM (inactive)
- GI50 (MDA-N): > 100 µM (inactive)
- GI50 (MOLT-4): 41.5 µM (inactive)
- GI50 (Malme-3M): 29.2 µM (inactive)
- GI50 (NCI-H23): 49.7 µM (inactive)
- GI50 (NCI-H460): 29.3 µM (inactive)
- GI50 (NCI/ADR-RES): 49.7 µM (inactive)
- GI50 (OVCAR-3): 19.7 µM (inactive)
- GI50 (OVCAR-4): 35.2 µM (inactive)
- GI50 (OVCAR-5): 29.6 µM (inactive)
- GI50 (OVCAR-8): > 100 µM (inactive)
- GI50 (PC-3): 30.1 µM (inactive)
- GI50 (RPMI-8226): 21.4 µM (inactive)
- GI50 (SF-268): 10.8 µM (inactive)
- GI50 (SF-295): 29.4 µM (inactive)
- GI50 (SF-539): 20.6 µM (inactive)
- GI50 (SK-MEL-28): > 100 µM (inactive)
- GI50 (SK-MEL-2): > 100 µM (inactive)
- GI50 (SK-MEL-5): 42.4 µM (inactive)
- GI50 (SK-OV-3): 30.6 µM (inactive)
- GI50 (SN12C): 26.2 µM (inactive)
- GI50 (SNB-19): 48 µM (inactive)
- GI50 (SNB-75): 59.3 µM (inactive)
- GI50 (SR): 7.74 µM (inactive)
- GI50 (SW-620): 76.6 µM (inactive)
- GI50 (TK-10): 35.9 µM (inactive)
- GI50 (U-251): 42.1 µM (inactive)
- GI50 (UACC-257): > 100 µM (inactive)
- GI50 (UACC-62): 20.8 µM (inactive)
- GI50 (UO-31): 65.6 µM (inactive)
